Results taken from BigSolDB 2.1.

CCS(=O)(=O)O.COC(=O)c1ccc2c(C(=Nc3ccc(N(C)C(=O)CN4CCN(C)CC4)cc3)c3ccccc3)c(O)[nH]c2c1
solubility (mole fraction)
Conditions	in DMAc	in DMF	in acetone	in acetonitrile	in dichloromethane	in ethanol	in isopropanol	in methanol	in n-butanol	in n-propanol
278.15 K	0.000745	0.000994	3.21e-06	9.42e-06	0.000125	0.00015	1.43e-05	0.00126	1.21e-05	4.29e-05
283.15 K	0.000878	0.00129	4.13e-06	1.42e-05	0.000148	0.000179	1.93e-05	0.00149	1.44e-05	6.92e-05
288.15 K	0.0011	0.00145	4.97e-06	1.75e-05	0.000161	0.000214	2.57e-05	0.00169	1.82e-05	8.1e-05
293.15 K	0.00129	0.00165	5.92e-06	2.17e-05	0.000175	0.000253	3.39e-05	0.00203	2.33e-05	0.000103
298.15 K	0.00156	0.00182	6.97e-06	2.89e-05	0.000199	0.000298	4.44e-05	0.00238	2.7e-05	0.000131
303.15 K	0.00186	0.00206	8.32e-06	3.83e-05	0.00022	0.00035	5.75e-05	0.00281	3.54e-05	0.000156
308.15 K	0.00214	0.00239	9.74e-06	4.28e-05	0.00025	0.0004	7.4e-05	0.00341	4.5e-05	0.000207
313.15 K	0.00258	0.00271	1.08e-05	5.13e-05	–	0.000473	0.0001	0.00413	5.17e-05	0.000241
318.15 K	0.00285	0.00304	1.3e-05	6.02e-05	–	0.000546	0.000118	0.00467	7.26e-05	0.000317
323.15 K	0.00316	0.00336	1.62e-05	6.85e-05	–	0.000627	0.00015	0.00524	8.92e-05	0.000384
